Measured values as given in PMC8772380, “Structural and Biochemical Investigation of Class I Ribonucleotide Reductase from the Hyperthermophile Aquifex aeolicus” (Biochemistry, 2021).

B1: Aquifex aeolicus ribonucleotide reductase R1 protein (α-subunit) (enzyme, UniProt O66503 1-801, looked up)
chain: MTMYVIKRSGRKEKLDINKIRIAIKFACEGLNVDPLELEADAQIQFRDGITTKEIQQLLIKTAAEKVSAERPDWTYTAARLLLYDLYKDVAHLRGYSLRDDLGKYKPYNRKNFYSFVKEYVEKGIYGEYLLENYSEEDFNKLANYIKPERDLYFTYTGIKILYDRYLVRDEEGRVIELPQEMYMLIAMTLAVPEKPEERLKWAKKFYDVLSEHKVTVATPTLMNARRPFTQLSSCFVLTVDDDLFDIFDNVKKAGMISKFAGGLGVYLGKIRATGAPIRKFKGASSGVIPVVKLINDTMTYVDQLGMRKGSASITLDIWHKDILDFLEVKTNVGDERKKAHDIHPAVSIPDLFMKRLKNREDWTLIDPYWARQYITRKIYDGKYKEVKPLPGSHYYVGIKEDGTQDILEPKGLEDFYGEEFEKWYLELEENLPSYAKKKVNSFELWKRLLTVAFETGEPYIFFRDEANRKNPNKHTGMVYSSNLCHEIVQTMSPSKHEKPVLDPETGEITYKKEAGDLPVCNLGSVNLGKVHTEEEIKEVLPLLVRMLDNVIEMNFYAIPEAEYTNKRYRAIGIGVSNYHYCLVKNGIKWESEEHLKFADKLFELIAFYALKGSLELAKERGRYKLFDGSNWSKGILFGRSVEEIEENSRQNGNNLPWRELAEEIKKYGIRNAYLLALMPTGSTSLILGATPSIDPIFARFYKEENMSGILPQVPPEVDRFYWHYKTAYTIDHEWTIRAAAVRQKWIDQAQSLNLFVDPQNIDGPRLSRLYELAWELGLKTIYYLRSRSAMDIEECEACSV
notes: Class I ribonucleotide reductase large (α) subunit R1, NrdAh subclass, Aquifex aeolicus; full length, synthetic gene (Genscript) in pET-28a(+) with N-terminal His tag and thrombin cleavage site; theoretical mass of the polypeptide 93 kDa; Homodimer in the crystal; monomer-dimer equilibrium in GEMMA and SEC; No removal of the His tag by thrombin is described; also called AaR1; NrdAh; source: E. …

Assays:
AaR1 = molecular target: T1, AaR1 (Aquifex aeolicus, UniProt O66503); experiment: GEMMA, effector-induced R1 dimerization; type: binding; settings: allosteric; 100 µM dATP, equimolar Mg acetate, 300 mM ammonium acetate pH 7.5, preincubated at 78 °C
T1 construct: gene nrdA; full length, N-terminal His tag and thrombin site (pET-28a), expressed in E. coli BL21(DE3); 93 kDa; monomer-dimer equilibrium
T1 sequence (O66503 1-801): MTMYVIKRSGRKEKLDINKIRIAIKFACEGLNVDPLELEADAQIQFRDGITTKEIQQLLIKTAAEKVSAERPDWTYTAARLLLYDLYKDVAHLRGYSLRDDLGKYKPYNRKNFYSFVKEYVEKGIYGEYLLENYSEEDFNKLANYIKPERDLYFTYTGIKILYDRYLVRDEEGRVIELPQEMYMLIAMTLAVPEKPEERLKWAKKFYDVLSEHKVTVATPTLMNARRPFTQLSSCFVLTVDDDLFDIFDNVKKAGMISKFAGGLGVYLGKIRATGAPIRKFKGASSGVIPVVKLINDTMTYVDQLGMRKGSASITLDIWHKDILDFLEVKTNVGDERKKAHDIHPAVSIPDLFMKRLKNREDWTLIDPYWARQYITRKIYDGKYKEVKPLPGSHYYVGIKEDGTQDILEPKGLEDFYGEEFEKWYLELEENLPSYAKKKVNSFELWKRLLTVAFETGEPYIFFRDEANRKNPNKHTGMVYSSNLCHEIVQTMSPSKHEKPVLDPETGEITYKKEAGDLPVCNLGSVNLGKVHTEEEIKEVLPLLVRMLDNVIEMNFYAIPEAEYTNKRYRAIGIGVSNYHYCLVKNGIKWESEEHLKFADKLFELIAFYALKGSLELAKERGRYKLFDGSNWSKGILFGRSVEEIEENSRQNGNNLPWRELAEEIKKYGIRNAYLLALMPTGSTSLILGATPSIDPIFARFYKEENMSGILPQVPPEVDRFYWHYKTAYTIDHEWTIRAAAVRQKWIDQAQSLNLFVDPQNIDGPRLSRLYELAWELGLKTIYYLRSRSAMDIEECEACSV

[1] = molecular target: T2, A. aeolicus RNR (AaR1 + AaR2) (Aquifex aeolicus, UniProt O66503); experiment: HPLC NDP reduction assay; type: biochemical; settings: pH 6.8, 79 °C
T2 construct: gene nrdA; full length AaR1 and AaR2 (construct lacking the 346-residue intein, equal to mature R2; natural precursor contains the intein), N-terminal His tags with thrombin site, E. coli expression; R2 42 kDa; with Ribonucleoside-diphosphate reductase subunit beta
T2 sequence (O66503 1-801): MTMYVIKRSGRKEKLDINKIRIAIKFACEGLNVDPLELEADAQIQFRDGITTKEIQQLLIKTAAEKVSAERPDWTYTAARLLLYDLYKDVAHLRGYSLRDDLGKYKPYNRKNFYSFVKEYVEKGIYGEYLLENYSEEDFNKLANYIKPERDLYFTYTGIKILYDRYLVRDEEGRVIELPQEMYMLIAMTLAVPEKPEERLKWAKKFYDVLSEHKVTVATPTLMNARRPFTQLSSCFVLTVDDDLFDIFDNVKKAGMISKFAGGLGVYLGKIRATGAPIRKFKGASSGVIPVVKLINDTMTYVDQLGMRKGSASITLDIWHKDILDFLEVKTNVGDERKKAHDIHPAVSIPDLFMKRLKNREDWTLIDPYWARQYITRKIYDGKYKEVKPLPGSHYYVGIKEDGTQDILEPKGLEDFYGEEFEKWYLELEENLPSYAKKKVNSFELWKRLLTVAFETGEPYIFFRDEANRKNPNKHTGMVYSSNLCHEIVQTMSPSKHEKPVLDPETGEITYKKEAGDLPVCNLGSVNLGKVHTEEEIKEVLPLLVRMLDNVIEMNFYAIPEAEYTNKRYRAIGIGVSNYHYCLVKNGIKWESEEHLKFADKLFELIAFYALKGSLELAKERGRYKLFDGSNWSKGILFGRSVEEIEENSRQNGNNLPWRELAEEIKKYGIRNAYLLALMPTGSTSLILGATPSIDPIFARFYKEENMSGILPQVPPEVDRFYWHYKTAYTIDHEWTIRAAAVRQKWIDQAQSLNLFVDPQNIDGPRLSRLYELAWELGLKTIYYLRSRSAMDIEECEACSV
T2 sequence (O67475 1-229 partner): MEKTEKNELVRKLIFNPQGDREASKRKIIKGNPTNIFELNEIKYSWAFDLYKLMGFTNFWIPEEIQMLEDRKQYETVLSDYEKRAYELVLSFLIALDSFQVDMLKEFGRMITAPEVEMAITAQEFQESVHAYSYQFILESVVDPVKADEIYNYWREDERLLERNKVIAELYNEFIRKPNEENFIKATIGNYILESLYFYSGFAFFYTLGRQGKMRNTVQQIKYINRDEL
T2 sequence (O67475 576-696 partner): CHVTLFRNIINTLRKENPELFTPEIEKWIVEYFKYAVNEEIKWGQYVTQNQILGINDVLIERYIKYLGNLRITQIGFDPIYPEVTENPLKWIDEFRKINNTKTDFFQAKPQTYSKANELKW

[2] = molecular target: the molecule itself; experiment: GEMMA (gas-phase electrophoretic mobility macromolecule analysis); individual R1 or R2 at 0.25 μM, 300 mM ammonium acetate pH 7.5, 0.005% Tween 20, without or with 300 μM ATP or 100 μM dATP (equimolar magnesium acetate); preincubated 2 min at 78 °C, analysed at room temperature
[3] = molecular target: B1; experiment: SEC; equimolar AaR1 and AaR2, 20 μM, with ATP and MgCl2; Superdex 200 PC 3.2/30, 20 mM Hepes pH 7.4, 75 mM NaCl, 0.2 mM TCEP; preincubated 5 min at 70 °C, run at 7 °C; top peak fraction analysed by SDS-PAGE; settings: both partners purified

Molecule: Nc1ncnc2c1ncn2[C@H]1C[C@H](O)[C@@H](COP(=O)(O)OP(=O)(O)OP(=O)(O)O)O1 [dATP]
- GEMMA, effector-induced R1 dimerization (AaR1): Allosteric effectors stimulated R1 dimerization, although complete conversion to dimers was not obtained

Molecule: Nc1nc2c(ncn2[C@H]2C[C@H](O)[C@@H](COP(=O)(O)OP(=O)(O)OP(=O)(O)O)O2)c(=O)[nH]1 [dGTP]
- HPLC NDP reduction assay ([1]; allosteric effector, s-site, induces ADP reduction, 2 mM dGTP, four substrates 0.5 mM each): dTTP and dGTP induce the reduction of GDP and ADP, respectively

Molecule: Nc1nc2c(ncn2[C@@H]2O[C@H](COP(=O)(O)OP(=O)(O)O)[C@@H](O)[C@H]2O)c(=O)[nH]1 [GDP]
- HPLC NDP reduction assay ([1]; 0.5 mM GDP with CDP, ADP and UDP, dTTP effector 2 mM, 10 mM DTT): specific activities for the conversion of CDP, UDP, GDP, and ADP to their corresponding dNDPs

Molecule: Nc1ncnc2c1ncn2[C@@H]1O[C@H](COP(=O)(O)OP(=O)(O)OP(=O)(O)O)[C@@H](O)[C@H]1O [ATP]
- HPLC NDP reduction assay ([1]; allosteric activator, 2 mM ATP, four substrates 0.5 mM each, 10 mM DTT, 10 mM Mg acetate, titration with CDP in Figure S3): ATP induces the reduction of CDP and UDP

Molecule: B1
- stoichiometry N [2]: 2

B2: Aquifex aeolicus ribonucleotide reductase R2 protein (β-subunit), from a construct lacking the intein (enzyme, UniProt O67475 1-229, looked up)
chain: MEKTEKNELVRKLIFNPQGDREASKRKIIKGNPTNIFELNEIKYSWAFDLYKLMGFTNFWIPEEIQMLEDRKQYETVLSDYEKRAYELVLSFLIALDSFQVDMLKEFGRMITAPEVEMAITAQEFQESVHAYSYQFILESVVDPVKADEIYNYWREDERLLERNKVIAELYNEFIRKPNEENFIKATIGNYILESLYFYSGFAFFYTLGRQGKMRNTVQQIKYINRDELCHVTLFRNIINTLRKENPELFTPEIEKWIVEYFKYAVNEEIKWGQYVTQNQILGINDVLIERYIKYLGNLRITQIGFDPIYPEVTENPLKWIDEFRKINNTKTDFFQAKPQTYSKANELKW
notes: Class I ribonucleotide reductase small (β) subunit R2, Aquifex aeolicus; Leu229 is joined to Cys230; The natural gene product carries the intein between Leu229 and Cys230; Theoretical mass of the polypeptide 42 kDa. numbers count on: the mature protein (intein removed); Homodimer in the crystal, GEMMA and SEC; No removal of the His tag is described; also called AaR2; mature AaR2; source: E. coli …
- stoichiometry N [3]: 1 AaR1:AaR2
- stoichiometry N [2]: 2
